Source: patent US10688099B2, “Methods for modulating the amount of RNA transcripts” (PTC Therapeutics, Inc., priority 2013, dated 2020)

Test system: RNA isoforms in PNN 1-46 SMA type I patient-derived fibroblasts
Assay: RNA Abundance Modulation (RNA isoform abundance, iFPM, HiSeq RNA sequencing)
Assay type: cell-based, human
Settings: 3 μM
Experimental: Cells from a cell line of interest are cultured in conditions sufficient to yield the number of cells capable of generating enough RNA for subsequent sequencing steps. Cells from the tested cell line are contacted with a compound described herein.
To culture said cells, they are seeded, at appropriate concentrations in a volume of media in a cell culture container and incubated for 4, 5, 6, 7, 8, 9, 10, or more hours. A concentrated solution of compound in a vehicle (e.g., DMSO) is then added in sufficient volume to result in the intended final concentration of the compound, for example 100 nM, 500 nM, 1 μM, 5 μM, 10 μM, 15 μM, 20 μM, or more. The cells may also be treated with vehicle alone, as a control. A number of replicates of each concentration or control may be made (e.g., 2 replicates). The cells are then incubated at a constant temperature appropriate for cell culture of the particular cell line (e.g., 37° C.) for 6, 12, 18, 24, 48, or more hours. After incubation, the growth medium is removed and the cells are washed with the appropriate buffer (e.g., PBS). Cells are then removed from adherence to the cell culture container by treatment with a solution containing trypsin, and the trypsin subsequently quenched with the appropriate volume of buffer (e.g., DMEM-FBS). The cells are then pelleted with gentle centrifugation (e.g., ≤90×g centrifugal force) and resuspended in a buffer to lyse the cells for extraction of RNA. The cell lysates may then be frozen (e.g., at −80° C.) or, alternately, may immediately be used in a procedure to purify the RNA (e.g. by use of the RNEASY PLUS® minikit). The RNA from cell lysates is eluted in the appropriate volume of buffer (e.g., RNEASE-FREE H2O®). The resulting purified RNA may then be sequenced (e.g., using RNASeq) or analyzed using a human exon array (e.g., by GENECHIP® human exon array) to determine changes in the RNA levels in those cells treated with compound compared to those cells treated only with DMSO. The purified RNA may also be quantified by other methods known in the art.
Using the RNA data obtained from sequencing, exon array, or other methods, a statistical analysis can reveal changes in the RNA levels of compound-treated compared with control. For example, t-test p-values may be calculated for the data obtained through sequencing and exon array methods in order to compare compound-treated cells to those treated with the DMSO control. […] Analysis of the sequencing and exon array data may then also yield predictions about the cause of the aberrant amount of an RNA transcript in the cells (e.g., perturbation of RNA splicing, RNA transcription, or RNA stability). These predictions may be further confirmed by methods known in the art. For example, RT-PCR and RT-qPCR may be used to confirm the change in amount of RNA transcripts for one or more particular transcripts of interest.
Following the methods described above in Example 1, PNN 1-46 SMA type I patient-derived fibroblasts were treated with 300 nM or 3 μM Compounds 774 and 808 in 0.5% DMSO.
700,000 cells were seeded in 10 mL of medium (DMEM plus 10% FBS) in a T-75 flask. Cells were allowed to attach for at least 4 hrs, after which 50 μL of a 200× compound solution (100% DMSO) was added to each well, and the plate was incubated at 37° C. for 24 hrs.
At the end of the incubation period, the supernatant was removed and the cells where washed with PBS. TrypLE (Invitrogen) express solution was added (e.g. 1.5 mL per one T75 flask). The flasks were incubated for 3 to 5 min at 37° C. The trypsin was then quenched, e.g., by adding 10 mL DMEM-FBS.
Next, the cells were pelleted using gentle centrifugation without exceeding 90×g centrifugal force. The supernatant was removed and the cell pellet was re-suspended in 600 μL RLT buffer (the RLT buffer was supplemented with beta-mercaptoethanol according to the RNeasy protocol manual) by pipetting up and down until the pellet was completely dissolved […]

Q: Which “amp FC (x + 1)” value (TOMM5 CR627326) does the source give for CCc1nc(C)cn2nc(-c3cc(=O)n4cc(C5CCN(C)CC5)cc(C)c4n3)cc12 [Compound 774] here?
A: 2.36

Q: And the “ave Cpd” value (TOMM5 CR627326)?
A: 4 iFPM

Q: And the “FC (x + 1)” value (TOMM5 NM_001001790)?
A: 0.3953

Q: What about the “L2FC (x + 1)” value (TOMM5 NM_001001790) of the same molecule?
A: −1.339

Q: And the “L2abs (Cpd-DMSO)” value (TOMM5 NM_001001790)?
A: 10.21

Q: What about the “abs (Cpd-DMSO)” value (TOMM5 NM_001001790) of the same molecule?
A: 1185 iFPM

Q: What about the “amp FC (x + 1)” value (TOMM5 NM_001001790) of the same molecule?
A: 2.53

Q: And the “ave Cpd” value (TOMM5 NM_001001790)?
A: 774 iFPM

Q: What about the “FC (x + 1)” value (TOMM5 NM_001134484) of the same molecule?
A: 0.2630

Q: What about the “L2FC (x + 1)” value (TOMM5 NM_001134484) of the same molecule?
A: −1.927

Q: And the “L2abs (Cpd-DMSO)” value (TOMM5 NM_001134484)?
A: 3.41

Q: What about the “abs (Cpd-DMSO)” value (TOMM5 NM_001134484) of the same molecule?
A: 11 iFPM

Q: What about the “amp FC (x + 1)” value (TOMM5 NM_001134484) of the same molecule?
A: 3.80

Q: What about the “ave Cpd” value (TOMM5 NM_001134484) of the same molecule?
A: 3 iFPM

Q: What about the “FC (x + 1)” value (TOMM5 NM_001134485) of the same molecule?
A: 0.4705

Q: And the “L2FC (x + 1)” value (TOMM5 NM_001134485)?
A: −1.088

Q: And the “L2abs (Cpd-DMSO)” value (TOMM5 NM_001134485)?
A: 4.88

Q: What about the “abs (Cpd-DMSO)” value (TOMM5 NM_001134485) of the same molecule?
A: 29 iFPM

Q: And the “amp FC (x + 1)” value (TOMM5 NM_001134485)?
A: 2.13

Q: And the “ave Cpd” value (TOMM5 NM_001134485)?
A: 25 iFPM

Q: What about the “FC (x + 1)” value (TRAF3 NM_003300) of the same molecule?
A: 0.1622

Q: And the “L2FC (x + 1)” value (TRAF3 NM_003300)?
A: −2.624

Q: And the “L2abs (Cpd-DMSO)” value (TRAF3 NM_003300)?
A: 8.22

Q: And the “abs (Cpd-DMSO)” value (TRAF3 NM_003300)?
A: 298 iFPM

Q: What about the “amp FC (x + 1)” value (TRAF3 NM_003300) of the same molecule?
A: 6.17

Q: What about the “ave Cpd” value (TRAF3 NM_003300) of the same molecule?
A: 57 iFPM

Q: And the “FC (x + 1)” value (TRAF3 NM_145725)?
A: 0.7367

Q: And the “L2FC (x + 1)” value (TRAF3 NM_145725)?
A: −0.441

Q: What about the “L2abs (Cpd-DMSO)” value (TRAF3 NM_145725) of the same molecule?
A: 8.08

Q: And the “abs (Cpd-DMSO)” value (TRAF3 NM_145725)?
A: 271 iFPM

Q: What about the “amp FC (x + 1)” value (TRAF3 NM_145725) of the same molecule?
A: 1.36

Q: What about the “ave Cpd” value (TRAF3 NM_145725) of the same molecule?
A: 757 iFPM

Q: What about the “FC (x + 1)” value (TRAF3 NM_145726) of the same molecule?
A: 1.0000

Q: What about the “L2FC (x + 1)” value (TRAF3 NM_145726) of the same molecule?
A: 0.000

Q: What about the “L2abs (Cpd-DMSO)” value (TRAF3 NM_145726) of the same molecule?
A: 0

Q: And the “abs (Cpd-DMSO)” value (TRAF3 NM_145726)?
A: 0 iFPM

Q: And the “amp FC (x + 1)” value (TRAF3 NM_145726)?
A: 1.00

Q: And the “ave Cpd” value (TRAF3 NM_145726)?
A: 0 iFPM

Q: What about the “FC (x + 1)” value (TRAF3 NM_001199427) of the same molecule?
A: 1.2405

Q: And the “L2FC (x + 1)” value (TRAF3 NM_001199427)?
A: 0.311

Q: And the “L2abs (Cpd-DMSO)” value (TRAF3 NM_001199427)?
A: 2.15

Q: What about the “abs (Cpd-DMSO)” value (TRAF3 NM_001199427) of the same molecule?
A: 4 iFPM

Q: And the “amp FC (x + 1)” value (TRAF3 NM_001199427)?
A: 1.24

Q: And the “ave Cpd” value (TRAF3 NM_001199427)?
A: 22 iFPM

Q: And the “FC (x + 1)” value (TRAK1 AK295848)?
A: 1.1521

Q: What about the “L2FC (x + 1)” value (TRAK1 AK295848) of the same molecule?
A: 0.204

Q: And the “L2abs (Cpd-DMSO)” value (TRAK1 AK295848)?
A: 6.64

Q: What about the “abs (Cpd-DMSO)” value (TRAK1 AK295848) of the same molecule?
A: 100 iFPM

Q: And the “amp FC (x + 1)” value (TRAK1 AK295848)?
A: 1.15

Q: What about the “ave Cpd” value (TRAK1 AK295848) of the same molecule?
A: 755 iFPM

Q: And the “FC (x + 1)” value (TRAK1 NM_014965)?
A: 0.0190

Q: What about the “L2FC (x + 1)” value (TRAK1 NM_014965) of the same molecule?
A: −5.718

Q: And the “L2abs (Cpd-DMSO)” value (TRAK1 NM_014965)?
A: 5.69

Q: What about the “abs (Cpd-DMSO)” value (TRAK1 NM_014965) of the same molecule?
A: 52 iFPM

Q: What about the “amp FC (x + 1)” value (TRAK1 NM_014965) of the same molecule?
A: 52.63

Q: What about the “ave Cpd” value (TRAK1 NM_014965) of the same molecule?
A: 0 iFPM

Q: What about the “FC (x + 1)” value (TRAK1 NM_001042646) of the same molecule?
A: 0.6949

Q: And the “L2FC (x + 1)” value (TRAK1 NM_001042646)?
A: −0.525

Q: What about the “L2abs (Cpd-DMSO)” value (TRAK1 NM_001042646) of the same molecule?
A: 7.09

Q: What about the “abs (Cpd-DMSO)” value (TRAK1 NM_001042646) of the same molecule?
A: 136 iFPM

Q: What about the “amp FC (x + 1)” value (TRAK1 NM_001042646) of the same molecule?
A: 1.44

Q: And the “ave Cpd” value (TRAK1 NM_001042646)?
A: 309 iFPM

Q: What about the “FC (x + 1)” value (TRAK1 NM_001265608) of the same molecule?
A: 0.8894

Q: And the “L2FC (x + 1)” value (TRAK1 NM_001265608)?
A: −0.169

Q: And the “L2abs (Cpd-DMSO)” value (TRAK1 NM_001265608)?
A: 6.46

Q: And the “abs (Cpd-DMSO)” value (TRAK1 NM_001265608)?
A: 88 iFPM

Q: And the “amp FC (x + 1)” value (TRAK1 NM_001265608)?
A: 1.12

Q: What about the “ave Cpd” value (TRAK1 NM_001265608) of the same molecule?
A: 705 iFPM

Q: What about the “FC (x + 1)” value (TRAK1 NM_001265610) of the same molecule?
A: 0.6862

Q: And the “L2FC (x + 1)” value (TRAK1 NM_001265610)?
A: −0.543

Q: What about the “L2abs (Cpd-DMSO)” value (TRAK1 NM_001265610) of the same molecule?
A: 3.13

Q: What about the “abs (Cpd-DMSO)” value (TRAK1 NM_001265610) of the same molecule?
A: 9 iFPM

Q: What about the “amp FC (x + 1)” value (TRAK1 NM_001265610) of the same molecule?
A: 1.46

Q: And the “ave Cpd” value (TRAK1 NM_001265610)?
A: 18 iFPM

Q: What about the “FC (x + 1)” value (TRAPPC12 AK094181) of the same molecule?
A: 1.2209
